Holding throughout (type): physicochemical
Data set [1] is described as follows: In vitro responsive properties towards temperature (Z-spectra). The conditions noted are these: for resonance frequency of hydroxylic protons, less shifted stereoisomer / resonance frequency of hydroxylic protons, more shifted stereoisomer: 24 mM, pH 7.31. On the procedure:
A solution of Yb(III)HPDO3A (24 mM) having pH 7.31 was used for test.
The test was performed with a phantom containing solution of YbHPDO3A-tetramer in serum having different concentration, ranging from 0.26 to 8.4 mM., pH 7.4 and 298K. The dependence of the chemical shifts of the OH mobile protons (of the tetrameric complex stereoisomers) on the Temperature was tested by operating as formerly described for the monomeric compound.

Data set [2] in a line: Z-spectrum / NMR resonances of the exchangeable OH protons of NMR-distinguishable isomers in solution. From the text: (§1) CEST MR contrast enhancement have been determined on images acquired at 7 T on a Bruker Avance 300 spectrometer equipped with a Micro2.5 microimaging probe. A typical RARE spin-echo sequence (rare factor 64) with an echo time of 3.3 ms and a TR value of 5 s were used. An acquisition matrix of 64×64 with a square FOV of 10 mm was used. The whole sequence was preceded by a saturation scheme consisting of a continuous wave pulse 2 s long with a RF intensity of 24, 12, 6 μT. The Z-spectra were successively analyzed in order to determine the ratiometric value by using a software compiled in MATLAB platform operating, broadly, as disclosed in Development and validation of a smoothing-splines-based correction method for improving the analysis of CEST-MR images, Stancanello J Terreno E, Delli Castelli D, Cabella C, Uggeri F 1, Aime S.; CONTRAST MEDIA & MOLECULAR IMAGING Volume: 3, Issue: 4, Pages: 136-149, 2008; and in Methods for an improved detection of the MRI-CEST effect. Terreno E, Stancanello 3, Longo D, Delli Castelli D, Milone L, Sanders H M H F, Kok M B, Uggeri F, Aime S; CONTRAST MEDIA & MOLECULAR IMAGING; Volume: 4; Issue: 5; Pages: 237-247; 2009 that are all herein included by reference. The total paramagnetic concentration of the solution was determined through the measurement of magnetic susceptibility of the solution on a Bruker Avance 600 spectrometer (12T).

Data set [3] in a line: In vitro responsiveness towards pH (CEST MRI of phantom, ratiometric ST). The conditions noted are these: in vitro solutions buffered at different pH.
From the text: as §1, with “[…]. […]” for “(12T).”

Consider “1,23-bis[4,7,10-triacetate[1,4,7,10-tetraazacyclododecan-(1)-yl]]-12,12′-bis[11[4,7,10-triacetate)-[1,4,7,10-tetraazacyclododecan-(1)-yl]]2-aza-3-oxo-5,8-dioxy-10-hydroxyundecanyl]2,22-dihydroxy-4,7,17,20-tetroxy-9,15-dioxo-10,14-diazatricosane tetra Ytterbium Complex (1:4) [YbHPDO3A-tetramer]”, for which the “sensitivity of the OH chemical shift to temperature (in words)” value in data set [1] is “greatly increased”.

Take `CC(O)CN1CCN(CC(=O)[O-])CCN(CC(=O)[O-])CCN(CC(=O)[O-])CC1.[Eu+3]` (centres unmarked) [EuHPDO3A]: in data set [2] (pH=2 and 37° C.), the “chemical shift of OH proton, first diastereoisomer (from water)” value is 20.5 ppm and the “chemical shift of OH proton, second diastereoisomer” value is listed as 16.7 ppm.

For `CC(O)CN1CCN(CC(=O)[O-])CCN(CC(=O)[O-])CCN(CC(=O)[O-])CC1.[Yb+3]` (centres unmarked) [YbHPDO3A], the “sensitivity of the OH chemical shift to temperature (in words)” value in data set [1] was “very sensitive to the temperature”. Besides, in data set [1] (20° C.), the “resonance frequency of hydroxylic protons, less shifted stereoisomer” value came out at 72 ppm and the “resonance frequency of hydroxylic protons, more shifted stereoisomer” value came out at 99 ppm. Moreover, in data set [1] (37° C.), the “resonance frequency of hydroxylic protons, less shifted stereoisomer” value is 64.3 ppm and the “resonance frequency of hydroxylic protons, more shifted stereoisomer” value is given as 88 ppm. Besides, in data set [3], the “responsiveness of the saturation transfer towards pH (in words)” value is recorded as “is different”. For the same compound, in data set [2] (20° C.), the “chemical shift of hydroxyl group, less shifted NMR-distinguishable diastereoisomer” value was determined as 72 ppm and the “chemical shift of hydroxyl group, more shifted NMR-distinguishable diastereoisomer” value came to 99 ppm.

The values are drawn from patent publication US10232060B2, “CEST systems exhibiting a concentration independent responsiveness” (BRACCO IMAGING S.P.A., priority 2010, dated 2019).
